Measured values taken from patent US20220265629A1, “TREATMENT OF SYSTOLIC DYSFUNCTION AND HEART FAILURE WITH REDUCED EJECTION FRACTION WITH THE COMPOUND (R)-4-(1-((3-(DIFLUOROMETHYL)-1-METHYL-1H-PYRAZOL-4-YL)SULFONYL)-1-FLUOROETHYL)-N-(ISOXAZOL-3-YL)PIPERIDINE-1-CARBOXAMIDE” (MyoKardia, Inc., priority 2019, published 2022).

Tested on: patients with stable HFrEF
Experiment: HFrEF study Part 2 (MAD Cohorts A-D): safety (TEAEs, serum troponin, ECG, Holter)
Type: in vivo, human
Description: Safety and efficacy assessments were conducted by measuring patients' vital signs and laboratory parameters; performing TTE to measure, e.g., systolic ejection time; performing electrocardiograms (e.g., 12-lead ECG), real-time ECG telemetry (e.g., at least 3-lead), and Holter ECG; and measuring levels of troponin (e.g., troponin I and/or troponin T) and […].
The following safety laboratory parameters were measured: (1) hematology parameters (CBC, including differential count, and platelet count); (2) serum chemistry parameters (e.g., sodium, potassium, chloride, bicarbonate, calcium, magnesium, urea, creatinine, ALP, ALT, AST, total bilirubin, glucose, and CPK); and (3) urinalysis parameters (e.g., pH, protein, glucose, leukocyte esterase, and blood).
Abnormal and/or rising troponin values (as per investigator's judgment and taking into account potential baseline troponin elevation frequently observed in heart failure) led to the patient being clinically evaluated for possible myocardial ischemia. […] The entire clinical context (e.g., signs, symptoms, new ECG changes, new troponin, and CK-MB abnormalities) was evaluated and correlated with any other relevant clinical findings, patient's medical history, and laboratory data to determine the clinical significance of the findings. Troponin results performed on Day 2 of Part 1 (SAD) and Day 10 of Part 2 (MAD) at a local lab were reviewed prior to the patient being discharged the next day.

[1] = Cohort A + C 75 mg BID (n = 15)
[2] = serum, MAD cohorts, Total Compound I (n = 22), ULN = 0.014
[3] = serum, MAD cohorts, Total Compound I (n = 30), ULN = 0.03

## Cn1cc(S(=O)(=O)[C@@](C)(F)C2CCN(C(=O)Nc3ccon3)CC2)c(C(F)F)n1 [Compound I, (R)-4-(1-((3-(difluoromethyl)-1-methyl-1H-pyrazol-4-yl)sulfonyl)-1-fluoroethyl)-N-(isoxazol-3-yl)piperidine-1-carboxamide]
50 mg
  patients with troponin increase: 2/9
75 mg
  patients with troponin increase: 2/15
100 mg
  patients with troponin increase: 3/6
[1]
  Any AE leading to death, number of patients (%): 0 n (%)
  Any TEAE leading to permanent treatment discontinuation, number of patients (%): 0 n (%)
  Any TEAE, number of patients (%): 6 (40.0) n (%)
  Any serious TEAE, number of patients (%): 1 (6.7) n (%)
  TEAE: Abdominal discomfort: 0 n (%)
  TEAE: Alanine aminotransferase increased: 1 (6.7) n (%)
  TEAE: Anemia: 1 (6.7) n (%)
  TEAE: Application site erosion: 0 n (%)
  TEAE: Arthralgia: 0 n (%)
  TEAE: Arthropod bite: 0 n (%)
  TEAE: Back pain: 0 n (%)
  TEAE: Blood creatine phosphokinase increased: 0 n (%)
  TEAE: Blood creatinine increased: 0 n (%)
  TEAE: Cough: 1 (6.7) n (%)
  TEAE: Dermatitis contact: 0 n (%)
  TEAE: Dry eye: 0 n (%)
  TEAE: Fatigue: 2 (13.3) n (%)
  TEAE: Fluid overload: 0 n (%)
  TEAE: Gingival pain: 0 n (%)
  TEAE: Hyperkalemia: 0 n (%)
  TEAE: Infusion site erythema: 0 n (%)
  TEAE: Nasopharyngitis: 0 n (%)
  TEAE: Rash: 0 n (%)
  TEAE: Renal failure: 0 n (%)
  TEAE: Renal impairment: 0 n (%)
  TEAE: Testicular pain: 0 n (%)
  TEAE: Troponin increased: 1 (6.7) n (%)
  TEAE: Ventricular tachycardia: 0 n (%)
Cohort B 50 mg BID (n = 9)
  Any AE leading to death, number of patients (%): 0 n (%)
  Any TEAE leading to permanent treatment discontinuation, number of patients (%): 0 n (%)
  Any TEAE, number of patients (%): 7 (77.8) n (%)
  Any serious TEAE, number of patients (%): 0 n (%)
  TEAE: Abdominal discomfort: 1 (11.1) n (%)
  TEAE: Alanine aminotransferase increased: 1 (11.1) n (%)
  TEAE: Anemia: 0 n (%)
  TEAE: Application site erosion: 1 (11.1) n (%)
  TEAE: Arthralgia: 0 n (%)
  TEAE: Arthropod bite: 0 n (%)
  TEAE: Back pain: 0 n (%)
  TEAE: Blood creatine phosphokinase increased: 1 (11.1) n (%)
  TEAE: Blood creatinine increased: 0 n (%)
  TEAE: Cough: 0 n (%)
  TEAE: Dermatitis contact: 2 (22.2) n (%)
  TEAE: Dry eye: 0 n (%)
  TEAE: Fatigue: 0 n (%)
  TEAE: Fluid overload: 1 (11.1) n (%)
  TEAE: Gingival pain: 0 n (%)
  TEAE: Hyperkalemia: 1 (11.1) n (%)
  TEAE: Infusion site erythema: 1 (11.1) n (%)
  TEAE: Nasopharyngitis: 0 n (%)
  TEAE: Rash: 1 (11.1) n (%)
  TEAE: Renal failure: 0 n (%)
  TEAE: Renal impairment: 0 n (%)
  TEAE: Testicular pain: 0 n (%)
  TEAE: Troponin increased: 0 n (%)
  TEAE: Ventricular tachycardia: 1 (11.1) n (%)
Cohort D 100 mg BID (n = 6)
  Any AE leading to death, number of patients (%): 0 n (%)
  Any TEAE leading to permanent treatment discontinuation, number of patients (%): 0 n (%)
  Any TEAE, number of patients (%): 4 (66.7) n (%)
  Any serious TEAE, number of patients (%): 0 n (%)
  TEAE: Abdominal discomfort: 0 n (%)
  TEAE: Alanine aminotransferase increased: 0 n (%)
  TEAE: Anemia: 0 n (%)
  TEAE: Application site erosion: 0 n (%)
  TEAE: Arthralgia: 0 n (%)
  TEAE: Arthropod bite: 1 (16.7) n (%)
  TEAE: Back pain: 0 n (%)
  TEAE: Blood creatine phosphokinase increased: 0 n (%)
  TEAE: Blood creatinine increased: 1 (16.7) n (%)
  TEAE: Cough: 0 n (%)
  TEAE: Dermatitis contact: 0 n (%)
  TEAE: Dry eye: 0 n (%)
  TEAE: Fatigue: 0 n (%)
  TEAE: Fluid overload: 0 n (%)
  TEAE: Gingival pain: 1 (16.7) n (%)
  TEAE: Hyperkalemia: 0 n (%)
  TEAE: Infusion site erythema: 0 n (%)
  TEAE: Nasopharyngitis: 0 n (%)
  TEAE: Rash: 0 n (%)
  TEAE: Renal failure: 0 n (%)
  TEAE: Renal impairment: 0 n (%)
  TEAE: Testicular pain: 0 n (%)
  TEAE: Troponin increased: 1 (16.7) n (%)
  TEAE: Ventricular tachycardia: 1 (16.7) n (%)
MAD cohorts
  QTc: No increase
MAD cohorts, 50-100 mg BID
  patients with treatment-emergent adverse events (TEAEs): 17 (57%)
MAD cohorts, all doses
  patients with transient asymptomatic increase in troponin I or hs-troponin T: 7 (23%)
Total Compound I (n = 30)
  Any AE leading to death, number of patients (%): 0 n (%)
  Any TEAE leading to permanent treatment discontinuation, number of patients (%): 0 n (%)
  Any TEAE, number of patients (%): 17 (56.7) n (%)
  Any serious TEAE, number of patients (%): 1 (3.3) n (%)
  TEAE: Abdominal discomfort: 1 (3.3) n (%)
  TEAE: Alanine aminotransferase increased: 2 (6.7) n (%)
  TEAE: Anemia: 1 (3.3) n (%)
  TEAE: Application site erosion: 1 (3.3) n (%)
  TEAE: Arthralgia: 0 n (%)
  TEAE: Arthropod bite: 1 (3.3) n (%)
  TEAE: Back pain: 0 n (%)
  TEAE: Blood creatine phosphokinase increased: 1 (3.3) n (%)
  TEAE: Blood creatinine increased: 1 (3.3) n (%)
  TEAE: Cough: 1 (3.3) n (%)
  TEAE: Dermatitis contact: 2 (6.7) n (%)
  TEAE: Dry eye: 0 n (%)
  TEAE: Fatigue: 2 (6.7) n (%)
  TEAE: Fluid overload: 1 (3.3) n (%)
  TEAE: Gingival pain: 1 (3.3) n (%)
  TEAE: Hyperkalemia: 1 (3.3) n (%)
  TEAE: Infusion site erythema: 1 (3.3) n (%)
  TEAE: Nasopharyngitis: 0 n (%)
  TEAE: Rash: 1 (3.3) n (%)
  TEAE: Renal failure: 0 n (%)
  TEAE: Renal impairment: 0 n (%)
  TEAE: Testicular pain: 0 n (%)
  TEAE: Troponin increased: 2 (6.7) n (%)
  TEAE: Ventricular tachycardia: 2 (6.7) n (%)
[2]
  hs-troponin T, max change from baseline: (0.041) ng/mL
  hs-troponin T, max peak troponin post dose: (0.052) ng/mL
  hs-troponin T, median change from baseline: 0.005 ng/mL
  hs-troponin T, median peak troponin post dose: 0.020 ng/mL
[3]
  Troponin I, max change from baseline: (0.87) ng/mL
  Troponin I, max peak troponin post dose: (0.88) ng/mL
  Troponin I, median change from baseline: 0.010 ng/mL
  Troponin I, median peak troponin post dose: 0.025 ng/mL
Single dose up to 550 mg and 50 to 100 mg BID for 7 days, HFrEF subjects
  safety and tolerability: safe and generally well-tolerated
